Data published in patent US6403656B1, “Use of ppar-γ activators in dermatology” (Galderma Research & Development S.N.C, priority 1997, dated 2002).

Experiments:
[1] = target: T1, PPARα (Homo sapiens, UniProt Q07869); assay: Transactivation test (luciferase reporter, cotransfected HeLa cells) via PPARα; conditions: read-out: AC50 (nM) − PPARα; HeLa cells cotransfected with receptor expression vector and PPRE-luciferase reporter, treated for 24 hours
T1 sequence (Q07869 1-468): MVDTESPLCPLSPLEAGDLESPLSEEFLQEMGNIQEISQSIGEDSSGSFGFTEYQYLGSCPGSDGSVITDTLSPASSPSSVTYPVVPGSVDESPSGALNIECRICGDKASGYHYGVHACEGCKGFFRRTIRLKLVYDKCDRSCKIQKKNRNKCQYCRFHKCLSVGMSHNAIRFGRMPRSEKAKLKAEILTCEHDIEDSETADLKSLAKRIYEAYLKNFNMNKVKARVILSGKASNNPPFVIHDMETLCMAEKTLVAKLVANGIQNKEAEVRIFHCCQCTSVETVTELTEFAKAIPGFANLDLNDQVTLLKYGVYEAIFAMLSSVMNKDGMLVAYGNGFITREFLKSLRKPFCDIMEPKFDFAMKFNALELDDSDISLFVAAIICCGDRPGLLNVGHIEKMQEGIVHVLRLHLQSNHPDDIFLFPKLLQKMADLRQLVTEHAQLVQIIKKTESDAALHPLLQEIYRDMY

[2] = tested on: keratinocytes; assay: Determination of the keratinocyte proliferation (BrdU incorporation); conditions: statement in words
[3] = target: T2, PPARγ (Homo sapiens, UniProt P37231); assay: Transactivation test (luciferase reporter, cotransfected HeLa cells) via PPARγ
T2 sequence (P37231 1-505): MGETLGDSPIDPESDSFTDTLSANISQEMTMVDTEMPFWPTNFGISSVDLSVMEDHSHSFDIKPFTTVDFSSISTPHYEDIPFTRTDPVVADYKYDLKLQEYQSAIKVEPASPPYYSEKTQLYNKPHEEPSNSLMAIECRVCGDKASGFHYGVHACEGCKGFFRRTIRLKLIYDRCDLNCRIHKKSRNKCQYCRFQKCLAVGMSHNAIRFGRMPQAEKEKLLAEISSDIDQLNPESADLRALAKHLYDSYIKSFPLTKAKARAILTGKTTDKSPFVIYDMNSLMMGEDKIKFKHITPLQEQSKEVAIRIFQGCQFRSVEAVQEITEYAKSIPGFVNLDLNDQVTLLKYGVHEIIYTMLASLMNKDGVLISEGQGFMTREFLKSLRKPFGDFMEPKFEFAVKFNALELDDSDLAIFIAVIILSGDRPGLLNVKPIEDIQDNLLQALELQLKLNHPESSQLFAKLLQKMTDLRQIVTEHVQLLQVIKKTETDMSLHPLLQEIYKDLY

AC50 [1] | R1 (ratio of AC50 relative to PPAR-γ over AC50 relative to PPARα) ([3]; AC50 PPARγ / AC50 PPARα) | AC50 ([3]; read-out: AC50 (nM) − PPARγ, HeLa cells cotransfected with receptor expression vector and PPRE-luciferase reporter, treated for 24 hours) | SMILES | inhibitory activity on the proliferation of keratinocytes [2]
4600 nM |  |  | CCOC(Cc1ccc(OCCN(C)c2nc3ccccc3o2)cc1)C(=O)O (single isomer, unassigned; (+)) [Compound C, (+)-3-{4-[2-(benzoxazol-2-ylmethylamino)-ethoxy]phenyl}-2-ethyoxypropionic acid] | 
1450 nM |  |  | CCOC(Cc1ccc(OCCN(C)c2nc3ccccc3o2)cc1)C(=O)O (single isomer, unassigned; (-)) [Compound D, (−)-3-{4-[2-(benzooxazol-2-ylmethylamino)-ethoxy]phenyl}-2-ethyoxypropionic acid] | 
 |  |  | CN(CCOc1ccc(CC2SC(=O)NC2=O)cc1)c1ccccn1 (stereo not shown) [Compound A, 5-{4-[2-(methylpyrid-2-ylamino)-ethoxy]benzyl}thiazolidine-2,4-dione] | weak, or even no inhibitory activity
2200 nM | 0.082 | 180 nM | CCCCC/C=C/C=C1/C(=O)C=CC1C/C=C\CCCC(=O)O (stereo not shown) [Compound E, 15-deoxy-Δ^12,14-prostaglandin J2(15-d PGJ2)] | weak, or even no inhibitory activity
